We go through three compounds from EPA's ToxValDB 9.5 (doi:10.2903/j.efsa.2010.1905).

Usually NOAEL stands for the highest tested level that showed no adverse finding.

The structures appear in SMILES notation. In brackets after ≈: the same amount, converted by molar mass.

For one series, the system named is Colinus virginianus. The note with it: for NOEC: reproduction developmental.
The next series concerns Pimephales promelas. The note with it: chronic/long-term; duration: 32 days; growth.
For another series, the system named is Apis mellifera. Conditions: acute; oral; unspecified; mortality.
A further series relates to Anas platyrhynchos. The note with it: oral, mortality.
The test system of a further series is Mus musculus. Conditions: acute; oral; mortality.
A further series relates to Typhlodromus pyri. As to the kind of experiment: LR50; higher = less toxic. Conditions: not reported; mortality.
The test system of another series is Aphidius rhopalosiphi. As to the kind of experiment: LR50; higher = less toxic. The note with it: not reported; mortality.
The test system of the next series is Tagia sp. Conditions: acute; duration: 14 days; mortality.
For a further series, the system named is Daphnia magna. Conditions: chronic/long-term; duration: 21 days; reproduction.
The next series deals with Neomysis kadiakensis. Conditions: chronic/long-term; duration: 28 days; reproduction.
Another series has as its system Cyprinus carpio. Conditions: acute; duration: 96 hours; mortality.
Setting [1] is: subchronic, duration: 90 days, oral.

Consider `CCCCOC(=O)[C@@H](C)Oc1ccc(Oc2ccc(C(F)(F)F)cn2)cc1` [Fluazifop-P-butyl], for which the LC50 in the series on Colinus virginianus (acute, oral, diet, mortality) is > 1070 mg/kg-day; in the series with Anas platyrhynchos (short-term, feed), > 942 mg/kg-day. The LD50 in the series on Colinus virginianus (acute, oral, mortality) is > 2000 mg/kg-day; with Apis mellifera, > 200 µg/piece; with Anas platyrhynchos (acute, unspecified) it was > 3960 mg/kg-day; with Mus musculus, > 2000 mg/kg-day. For the same compound, the values for the NOEC with Colinus virginianus and in the series with Pimephales promelas were 86.8 mg/kg-day and 0.077 mg/L, respectively. In addition, the no observed adverse effect level (NOAEL) in the series with Rattus norvegicus (chronic, mortality) worked out at 6.72 mg/kg-day; in the series with Rattus norvegicus (developmental, development), 2 mg/kg-day; in the series on Rattus norvegicus (setting [1]), 0.9 mg/kg-day. Further, the figures for the LR50 with Typhlodromus pyri and in the series with Aphidius rhopalosiphi were 5.6 g/ha and 177 g/ha, respectively.

For `C[C@@H](Oc1ccc(Oc2ccc(C(F)(F)F)cn2)cc1)C(=O)O` [Fluazifop-P], the no-observed-adverse-effect level (NOAEL) in the series on Rattus norvegicus (developmental, development) is 2 mg/kg-day; in the series on Rattus norvegicus (setting [1]), 0.9 mg/kg-day. The same compound came in with an NOEC in the series with Pimephales promelas of 1.46 mg/L.

With `CCCCOC(=O)C(C)Oc1ccc(Oc2ccc(C(F)(F)F)cn2)cc1` (configuration not stated) [Fluazifop-butyl], the NOEC was determined as 3.95 mg/kg-day in the series on Colinus virginianus, 0.25 mg/L in the series with Daphnia magna and 0.0477 mg/L with Neomysis kadiakensis. In addition, the LC50 was > 1000 mg/kg in the series on Tagia sp. and 1.31 mg/L (≈ 3.42 µM) with Cyprinus carpio. This compound came in with an NOAEL in the series on Rattus norvegicus (reproduction developmental, reproduction) of 6.72 mg/kg-day.
